Reference: PMC5584945, “Evaluation of robenidine analog NCL195 as a novel broad-spectrum antibacterial agent” (PLoS ONE, 2017)
Converted amounts (≈) assume the structure as drawn. Read-outs that look alike come from different tables or passages of the source.

Columns and labels:
S. aureus Xen29 = assay: Point of resistance assay (serial passage)
S. aureus = assay: MIC, broth micro-dilution (CLSI); type: cell-based, Staphylococcus aureus; conditions: Staphylococcus aureus; for MIC: read-out: MIC
[1] = S2 Table isolates, absence of FBS

Question: What does the source list for `CCCCCCCCCC(=O)N[C@@H](Cc1c[nH]c2ccccc12)C(=O)N[C@H](CC(N)=O)C(=O)N[C@@H](CC(=O)O)C(=O)N[C@@H]1C(=O)NCC(=O)N[C@@H](CCCN)C(=O)N[C@@H](CC(=O)O)C(=O)N[C@H](C)C(=O)N[C@@H](CC(=O)O)C(=O)NCC(=O)N[C@H](CO)C(=O)N[C@@H]([C@H](C)CC(=O)O)C(=O)N[C@@H](CC(=O)c2ccccc2N)C(=O)O[C@@H]1C` [Daptomycin, daptomycin]?
Answer: Resistance (fold MIC) over serial passage (S. aureus Xen29; by day 12 of the serial passage): 8 ×MIC; Day of serial passage by which resistance developed (S. aureus Xen29; daily serial passage): 5 days; MIC90 (S. aureus; 23 isolates): 0.5 µg/mL (≈ 0.309 µM); MIC (S. aureus; ATCC 12600 / MSSA, ATCC12600 [Xen29] (MSSA), 10% FBS): 0.5 µg/mL (≈ 0.309 µM); MIC (S. aureus; ATCC 12600 / MSSA, ATCC12600 [Xen29] (MSSA), absence of FBS): 0.5 µg/mL (≈ 0.309 µM); MIC (S. aureus; ATCC 29213 / MSSA, ATCC29213 MSSA (ST5), absence of FBS): 0.5 µg/mL (≈ 0.309 µM); MIC (S. aureus; ATCC 49775 / MSSA, ATCC 49775 (MSSA), absence of FBS): 0.5 µg/mL (≈ 0.309 µM); MIC (S. aureus; IRISH 1 – HA-EMRSA (ST8), absence of FBS): 0.5 µg/mL (≈ 0.309 µM); MIC (S. aureus; IRISH 2 – HA-EMRSA (ST8), absence of FBS): 0.5 µg/mL (≈ 0.309 µM); MIC (S. aureus; MRSA / USA300, USA 300 - MRSA (ST8), absence of FBS): 0.5 µg/mL (≈ 0.309 µM); MIC (S. aureus; MRSA, AUS2-MRSA (ST239), absence of FBS): 1 µg/mL (≈ 0.617 µM); MIC (S. aureus; MRSA, AUS3-MRSA (ST239), absence of FBS): 0.5 µg/mL (≈ 0.309 µM); MIC (S. aureus; MRSA, BENGAL BAY PVL+ – CA-MRSA (ST772), absence of FBS): 0.5 µg/mL (≈ 0.309 µM); MIC (S. aureus; MRSA, Classic–HA-MRSA (ST250), absence of FBS): 0.5 µg/mL (≈ 0.309 µM); MIC (S. aureus; MRSA, NY JAPAN – HA MRSA (ST5), absence of FBS): 0.5 µg/mL (≈ 0.309 µM); MIC (S. aureus; MRSA, QLD PVL+ –CA-MRSA (ST93), absence of FBS): 0.25 µg/mL (≈ 0.154 µM); MIC (S. aureus; MRSA, ST398–CA-MRSA-V (ST398), absence of FBS): 0.5 µg/mL (≈ 0.309 µM); MIC (S. aureus; MRSA, WSPP – PVL neg CA MRSA (ST30), absence of FBS): 0.5 µg/mL (≈ 0.309 µM); MIC50 (S. aureus; [1]): 0.5 µg/mL (≈ 0.309 µM); MIC90 (S. aureus; [1]): 0.5 µg/mL (≈ 0.309 µM); MIC (S. aureus; TAIWAN PVL+ – CA-cMRSA (ST59), absence of FBS): 0.5 µg/mL (≈ 0.309 µM); MIC (S. aureus; UK 15 PVL+ – HA-EMRSA (ST22), absence of FBS): 0.5 µg/mL (≈ 0.309 µM); MIC (S. aureus; UK 15 – HA-EMRSA (ST22), absence of FBS): 0.5 µg/mL (≈ 0.309 µM); MIC (S. aureus; UK 16 – HA- EMRSA (ST36), absence of FBS): 0.5 µg/mL (≈ 0.309 µM); MIC (S. aureus; UK 17 – HA-EMRSA (ST247), absence of FBS): 0.5 µg/mL (≈ 0.309 µM)
